# Measured values: patent US20250179032A1, “HETEROCYCLIC INHIBITORS OF GLUT9 FOR TREATMENT OF DISEASE” (HORIZON THERAPEUTICS IRELAND DAC, priority 2022, published 2025)
# Target: T1, H. sapiens SLC2A9 variant 2 (GLUT9B) (Homo sapiens, UniProt Q9NRM0)
# T1 sequence (Q9NRM0 1-511 isoform Q9NRM0-2): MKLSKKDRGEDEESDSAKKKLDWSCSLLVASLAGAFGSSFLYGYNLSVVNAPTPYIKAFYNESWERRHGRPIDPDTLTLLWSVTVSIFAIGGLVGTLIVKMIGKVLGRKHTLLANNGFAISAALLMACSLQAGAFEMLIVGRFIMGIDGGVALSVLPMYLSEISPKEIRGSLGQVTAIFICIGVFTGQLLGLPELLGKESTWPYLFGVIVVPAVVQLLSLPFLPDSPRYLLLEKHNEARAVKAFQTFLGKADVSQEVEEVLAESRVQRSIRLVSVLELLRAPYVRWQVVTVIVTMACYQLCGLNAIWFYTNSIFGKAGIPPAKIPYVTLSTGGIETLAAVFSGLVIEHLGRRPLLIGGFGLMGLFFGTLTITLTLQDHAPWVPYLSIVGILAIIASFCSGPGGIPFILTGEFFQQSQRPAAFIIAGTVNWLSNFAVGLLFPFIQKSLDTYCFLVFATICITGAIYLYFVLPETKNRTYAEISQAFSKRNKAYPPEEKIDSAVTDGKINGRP
# Assay: GLUT9 functional assay: uric acid uptake in HEK293T cells, allantoin formation by MS/MS as proxy of GLUT9B inhibition
# Type: cell-based
# Details: 15 minute assay; HEK293T cells stably expressing GLUT9B and transiently A. oryzae uricase; uric acid 0.3 mM, 37° C.; read-out: 15 min IC50
# Method: Uric acid stocks (9 mM, Millipore-Sigma, U0881) were generated in 125 mM choline chloride (Millipore-Sigma, C7017) and the concentration was determined at 293 nm using a molar extinction coefficient of 9600 M- ^1 cm- ^1) after collecting the absorbance spectra from 220-350 nm. Allantoin stocks (12 mM Toronto Research Chemicals, A540500) were generated in LCMS grade water (Thermo Scientific, 51140). The concentration of allantoin was determined by qNMR (Michigan State University). HEK293T cells were purchased from ATCC (HEK 293T/17 SF). Hanks buffered saline salts (HBSS) was purchased from Millipore-Sigma (H6648-1L).
# SLC2A9 variant 2 was assayed in sodium gluconate buffer was composed of 125 mM sodium gluconate (TCI Chemicals, G0041-500G), 4.8 mM potassium gluconate (TCI Chemicals, G0040-500G), 1.2 mM calcium gluconate (TCI Chemicals, G0037-500G), 1.2 mM potassium phosphate (pH 7.4, Millipore-Sigma, 17835), 1.2 mM MgSO4, Millipore-Sigma, M2773-500G), 25 mM HEPES pH 7.3, (Millipore-Sigma, 54457). The final pH of the buffer was 7.4. Urate 1 was assayed in the same buffer save the pH was made to be 5.5 using 25 mM MES (pH 5.5) buffer vs 25 mM HEPES (pH 7.3) buffer.
# Human untagged clone for (untagged)-human solute carrier family 2 member 9 (SLC2A9), transcript variant (SLC2A9/NM_001001290, FIG. 1 and FIG. 2; SEQ ID NOS: 3 and 4) was purchased from Origene (Cat #SC319239). SLC2A9 variant 2 (GLUT9B) gene was amplified by PCR using the following primer to allow for the introduction of EcoR1 and Not1 sites using the primers below.
# HEK293T clonal stable cell lines containing the SLC2A9 variant 2 construct in the bicistronic pIRESpuro vector were generated using Viafect™ (Promega E4981) as per the manufactures instructions and puromycin selection (5 μg×mL^−1).
# Uric acid uptake was measured in HEK293T cells stably expressing H. sapiens SLC2A9 variant 2 (GLUT9B) and transiently expressing A. oryzae uricase. Thus, decreased allantoin formation was used as a proxy of GLUT9B inhibition. Briefly, clonal cells were plated (53,000 cells/cm^2) in DMEM with 10% FBS. Twenty-four hours later, A. oryzae uricase was transfected, and assay conducted 3 days later across a 12-point curve in buffer (in mM: 125 sodium gluconate, 4.8 potassium gluconate, 1.2 calcium gluconate, 1.2 potassium phosphate, 1.2 magnesium sulfate4, 25 HEPES; pH 7.4) with uric acid at the GLUT9B Km (0.3 mM) for 15 min or for 60 min, at 37° C. Following wash (Hanks, 37° C.), plates were sealed, incubated (5 min, RT) and cells freeze-thawed prior to lysing in water and shaking (30 min RT). Lysates were filtered through PVDF and subjected to MSMS using a 10 mM ammonium acetate-based mobile phase on a porous graphitic carbon column. Allantoin was detected in positive ion mode. Desired analyte concentrations were quantitated by integrating the area under the curve followed by a log-logistic regression model and data compared to a standard curve prepared in a matching HEK293T biological matrix.
# Mass spectrometry measurement of allantoin was completed using an Agilent RapidFire 300 coupled to a Sciex API 4000 mass spectrometer. The stationary phase was an Agilent cartridge D (hypercarb). Mobile phase A was 10 mM ammonium acetate. Mobile phase B was 5 mM ammonium acetate, 25% acetonitrile, 25% acetone. Allantoin was detected in positive ion mode with the following compound ID settings: Q1 159, Q3 115.8, DP 57, CE 12.5 Dwell 100 ms. The source settings were CAD 10, CUR 20, GS1 50, GS250 IS/NC: 5000, TEM 650, EP 10, CXP 10 where Q1 and Q3 resolution were set to low.
# Data was quantitated using Area under the curve integration was performed with the RapidFire™ Integrator (Agilent Technologies) for the desired analytes. Quantitation was completed using in a using a log-logistic regression model using allantoin in matching HEK293T biological matrix.
row,SMILES,IC50
1,"CCCCc1cnc(-c2ccc(OC)cc2)c(-c2ccc(C(=O)O)cn2)c1 [Compound 24, 5′-butyl-2′-(4-methoxyphenyl)-[2,3′-bipyridine]-5-carboxylic acid]",> 2000 nM
2,"CCCCc1cnc(-c2ccc(OC)cc2)c(-c2ncc(C(=O)O)s2)c1 [Compound 25, 2-(5-butyl-2-(4-methoxyphenyl)pyridin-3-yl)thiazole-5-carboxylic acid]",> 2000 nM
3,"CCCCc1cnc(-c2ccc(OC)cc2)c(-c2cc(=O)[nH][nH]2)c1 [Compound 26, 5-(5-butyl-2-(4-methoxyphenyl)pyridin-3-yl)-1,2-dihydro-3H-pyrazol-3-one]",> 2000 nM
4,"CCCCc1cnc(-c2ccc(OC)cc2)c(-c2ccc3c(c2)CNC3=O)c1 [Compound 27, 5-(5-butyl-2-(4-methoxyphenyl)pyridin-3-yl)isoindolin-1-one]",500 to 2000 nM
5,"CCCCc1nc(-c2ccc(OC)cc2)c(N2CCC(C(=O)O)CC2)o1 [Compound 28, 1-(2-butyl-4-(4-methoxyphenyl)oxazol-5-yl)piperidine-4-carboxylic acid]",500 to 2000 nM
6,"CCCCc1cnc(-c2ccc(OC)cc2)c(-c2cn(CC(=O)O)nn2)c1 [Compound 29, 2-(4-(5-butyl-2-(4-methoxyphenyl)pyridin-3-yl)-1H-1,2,3-triazol-1-yl)acetic acid]",< 500 nM
7,"COc1ccc(-c2ncc(CCC(F)(F)C(F)(F)F)nc2N2CCC(C(=O)O)CC2)cc1 [Compound 30, 1-(3-(4-methoxyphenyl)-6-(3,3,4,4,4-pentafluorobutyl)pyrazin-2-yl)piperidine-4-carboxylic acid]",< 500 nM
8,"COc1ccc(-c2ncc(CCCC(F)(F)F)nc2N2CCC(C(=O)O)CC2)cc1 [Compound 31, 1-(3-(4-methoxyphenyl)-6-(4,4,4-trifluorobutyl)pyrazin-2-yl)piperidine-4-carboxylic acid]",< 500 nM
9,"COc1ccc(-c2ncc(COCC(F)(F)F)nc2N2CCC(C(=O)O)CC2)cc1 [Compound 32, 1-(3-(4-methoxyphenyl)-6-((2,2,2-trifluoroethoxy)methyl)pyrazin-2-yl)piperidine-4-carboxylic acid]",> 2000 nM
10,"COCCOc1ccc(-c2ncc(COCC(F)(F)F)nc2N2CCC(C(=O)O)CC2)cc1 [Compound 33, 1-(3-(4-(2-methoxyethoxy)phenyl)-6-((2,2,2-trifluoroethoxy)methyl)pyrazin-2-yl)piperidine-4-carboxylic acid]",500 to 2000 nM
11,"COCCOc1ccc(-c2ncc(CCCC(F)(F)F)nc2N2CCC(C(=O)O)CC2)cc1 [Compound 34, 1-(3-(4-(2-methoxyethoxy)phenyl)-6-(4,4,4-trifluorobutyl)pyrazin-2-yl)piperidine-4-carboxylic acid]",500 to 2000 nM
12,"CCCCc1cnc(-c2ccc(OC)cc2)c(-c2ccc3c(c2)COC3=O)n1 [Compound 35, 5-(6-butyl-3-(4-methoxyphenyl)pyrazin-2-yl)isobenzofuran-1(3H)-one]",500 to 2000 nM
13,"CCCCc1cnc(-c2ccc(OC)cc2)c(N2CC3(CC(C(=O)O)C3)C2)n1 [Compound 36, 2-(6-butyl-3-(4-methoxyphenyl)pyrazin-2-yl)-2-azaspiro[3.3]heptane-6-carboxylic acid]",500 to 2000 nM
14,"CCCCc1cnc(-c2ccc(OCCOC)c(F)c2)c(N2CCC(C(=O)O)CC2)n1 [Compound 37, 1-(6-butyl-3-(3-fluoro-4-(2-methoxyethoxy)phenyl)pyrazin-2-yl)piperidine-4-carboxylic acid]",< 500 nM
15,"CCCCc1cnc(-c2cc(F)c(OCCOC)c(F)c2)c(N2CCC(C(=O)O)CC2)n1 [Compound 38, 1-(6-butyl-3-(3,5-difluoro-4-(2-methoxyethoxy)phenyl)pyrazin-2-yl)piperidine-4-carboxylic acid]",500 to 2000 nM
16,"CCCCc1cnc(-c2ccc(OC)cc2)c(-c2ccc3c(C(=O)O)c[nH]c3c2)c1 [Compound 39, 6-(5-butyl-2-(4-methoxyphenyl)pyridin-3-yl)-1H-indole-3-carboxylic acid]",< 500 nM
17,"CCCCc1cnc(-c2ccc(OC)cc2)c(-c2ccc3c(C(=O)O)coc3c2)c1 [Compound 40, 6-(5-butyl-2-(4-methoxyphenyl)pyridin-3-yl)benzofuran-3-carboxylic acid]",< 500 nM
18,"CCCCc1cnc(-c2ccc(OC)cc2)c(N2CCc3c(C(=O)O)csc3C2)n1 [Compound 41, 6-(6-butyl-3-(4-methoxyphenyl)pyrazin-2-yl)-4,5,6,7-tetrahydrothieno[2,3-c]pyridine-3-carboxylic acid]",500 to 2000 nM
19,"CCCCc1cnc(-c2ccc(OCCOC(F)(F)F)cc2)c(N2CCC(C(=O)O)CC2)n1 [Compound 42, 1-(6-butyl-3-(4-(2-(trifluoromethoxy)ethoxy)phenyl)pyrazin-2-yl)piperidine-4-carboxylic acid]",> 2000 nM
20,"CCCCc1cnc(-c2ccc(OC)s2)c(N2CCC(C(=O)O)CC2)n1 [Compound 43, 1-(6-butyl-3-(5-methoxythiophen-2-yl)pyrazin-2-yl)piperidine-4-carboxylic acid]",> 2000 nM
21,"CCCCc1cnc(-c2cnc(OC)s2)c(N2CCC(C(=O)O)CC2)n1 [Compound 44, 1-(6-butyl-3-(2-methoxythiazol-5-yl)pyrazin-2-yl)piperidine-4-carboxylic acid]",> 2000 nM
22,CCCCc1cnc(-c2ccc3c(c2)OCO3)c(N2CCC(C(=O)O)CC2)n1 [Compound 45],< 500 nM
23,"CCCCc1cnc(-c2cc(F)c3c(c2)OCO3)c(N2CCC(C(=O)O)CC2)n1 [Compound 46, 1-(6-butyl-3-(7-fluorobenzo[d][1,3]dioxol-5-yl)pyrazin-2-yl)piperidine-4-carboxylic acid]",< 500 nM
24,"CCCCc1cnc(-c2ccc3c(c2)C(=O)CO3)c(N2CCC(C(=O)O)CC2)n1 [Compound 47, 1-(6-butyl-3-(3-oxo-2,3-dihydrobenzofuran-5-yl)pyrazin-2-yl)piperidine-4-carboxylic acid]",500 to 2000 nM
25,"CCCCc1cnc(-c2ccc(OC)cc2)c(N2CCC(CCC(=O)O)CC2)n1 [Compound 48, 3-(1-(6-butyl-3-(4-methoxyphenyl)pyrazin-2-yl)piperidin-4-yl)propanoic acid]",< 500 nM
26,"COCc1cnc(-c2cc(F)c3occc3c2)c(N2CCC(C(=O)O)CC2)n1 [Compound 49, 1-(3-(7-fluorobenzofuran-5-yl)-6-(methoxymethyl)pyrazin-2-yl)piperidine-4-carboxylic acid]",500 to 2000 nM
27,"COCCn1ccc2cc(-c3ncc(COC)nc3N3CCC(C(=O)O)CC3)cc(F)c21 [Compound 50, 1-(3-(7-fluoro-1-(2-methoxyethyl)-1H-indol-5-yl)-6-(methoxymethyl)pyrazin-2-yl)piperidine-4-carboxylic acid]",> 2000 nM
